Earlier results on two molecules are cited in US20090087484A1, “Formulation and dosage form for increasing oral bioavailability of hydrophilic macromolecules” (priority 2007, published 2009).

The conditions of data set [1]: in vivo.

Read-outs that look alike come from different tables or passages of the source.

`NC(=O)CC[C@@H]1NC(=O)[C@H](Cc2ccccc2)NC(=O)[C@H](Cc2ccc(O)cc2)NC(=O)CCSSC[C@@H](C(=O)N2CCC[C@H]2C(=O)N[C@H](CCCN=C(N)N)C(=O)NCC(N)=O)NC(=O)[C@H](CC(N)=O)NC1=O` [dDAVP, Desmopressin]: the oral bioavailability entry in data set [1] is “about 0.15%”.

As to pentosan polysulfate sodium [PPS], the “elimination half-life in urine” value (after oral administration) is 4.8 h. Further, under “in humans”, the oral bioavailability result is reported as “approximately 3%”. Also, the elimination half-life (mean value, following IV injection) was 24 h.
